The text below walks through data of patent US6962922B2, “Alkynylated quinazoline compounds” (Warner-Lambert Company LLC, priority 2001, dated 2005).

The melting point is the temperature, or range, at which the solid turns liquid. The compound `CN(C)C(=O)c1ccc(Cn2c(=O)c3cc(C#CCc4ccccc4)ccc3n(C)c2=O)cc1` [Example 19, N,N-Dimethyl-4-[1-methyl-2,4-dioxo-6-(3-phenyl-prop-1-ynyl)-1,4-dihydro-2H-quinazolin-3-ylmethyl]-benzamide] registered a melting point of 171 to 173 °C.
For `Cn1c(=O)n(Cc2ccc(CO)cc2)c(=O)c2cc(C#CCc3ccccc3)ccc21` [Example 24, 3-(4-Hydroxymethyl-benzyl)-1-methyl-6-(3-phenyl-prop-1-ynyl)-1H-quinazoline-2,4-dione], the melting point lay in the range of 161 to 164 °C.
Compound `Cn1c(=O)n(Cc2cccc(Cl)c2)c(=O)c2cc(C#CCc3ccccc3)ccc21` [Example 25, 3-(3-Chloro-benzyl)-1-methyl-6-(3-phenyl-prop-ynyl)-1H-quinazoline-2,4-dione] gave a melting point of 164 to 166 °C.
In the case of `Cn1c(=O)n(Cc2cccc(F)c2)c(=O)c2cc(C#CCc3ccccc3)ccc21` [Example 26, 3-(3-Fluoro-benzyl)-1-methyl-6-(3-phenyl-prop-1-ynyl)-1H-quinazoline-2,4-dione] it was 143 to 144 °C.
Under `Cn1c(=O)n(Cc2ccc(Cl)cc2)c(=O)c2cc(C#CCc3ccccc3)ccc21` [Example 27, 3-(4-Chloro-benzyl)-1-methyl-6-(3-phenyl-prop-1-ynyl)-1H-quinazoline-2,4-dione] stands 175 to 176 °C.
Under `Cn1c(=O)n(Cc2ccc(F)c(F)c2)c(=O)c2cc(C#CCn3ccnc3)ccc21` [Example 29, 3-(3,4-Difluoro-benzyl)-6-(3-imidazol-1-yl-prop-1-ynyl)-1-methyl-1H-quinazoline-2,4-dione] stands 163 to 165 °C; under `Cn1c(=O)n(Cc2ccc(F)c(F)c2)c(=O)c2cc(C#CCc3ccc(Cl)cc3)ccc21` [Example 30, 6-[3-(4-Chloro-phenyl)-prop-1-ynyl]-3-(3,4-difluoro-benzyl)-1-methyl-1H-quinazoline-2,4-dione], 163 to 165 °C.
For the compound `Cn1c(=O)n(Cc2cccc(Cl)c2)c(=O)c2cc(C#CCc3ccc(Cl)cc3)ccc21` [Example 31, 3-(3-Chloro-benzyl)-6-[3-(4-chloro-phenyl)-prop-1-ynyl]-1-methyl-1H-quinazoline-2,4-dione], the melting point was 169 to 171 °C.
Under `Cn1c(=O)n(Cc2ccc(F)c(F)c2)c(=O)c2cc(C#CCn3ccnn3)ccc21` [Example 32, 3-(3,4-Difluoro-benzyl)-1-methyl-6-(3-[1,2,3]triazol-1-yl-prop-1-ynyl)-1H-quinazoline-2,4-dione] stands 167 to 169 °C.
In the case of `Cn1c(=O)n(Cc2ccc(F)c(F)c2)c(=O)c2cc(C#CCn3cncn3)ccc21` [Example 33, 3-(3,4-Difluoro-benzyl)-1-methyl-6-(3-[1,2,4]triazol-1-yl-prop-1-ynyl)-1H-quinazoline-2,4-dione] it was 185 to 187 °C.
Turning to `Cn1c(=O)n(Cc2ccc(Cl)c(Cl)c2)c(=O)c2cc(C#CCn3cncn3)ccc21` [Example 34, 3-(3,4-Dichloro-benzyl)-1-methyl-6-(3-[1,2,4]triazol-1-yl-prop-1-ynyl)-1H-quinazoline-2,4-dione], the melting point was in the range of 171 to 172 °C.
